pKi: −log10 of the molar value.
Experiments:
[1] = molecular target: T1, 5-hydroxytryptamine receptor 2A (Homo sapiens, UniProt P28223); assay: Antagonist activity at human 5-HT2AR expressed in HEK293 cells assessed as inhibition of serotonin-induced IP1 accumulation by chemiluminescence-based assay; type: functional, cell-based
[2] = molecular target: D(1A) dopamine receptor (Homo sapiens) (UniProt P21728); assay: Displacement of [3H]-SCH 23390 from human dopamine D1 receptor expressed in CHO cells at 10^-6 M after 60 mins by scintillation counting method relative to control; type: cell-based
Cavia porcellus [3] = assay: Cardiotoxicity in guinea pig assessed as effect on PR interval time at 5 mg/kg, ip measured after 10 mins by ECG analysis (reference value: 58.8 to 63.8 milliseconds); type: toxicity, organism-based; conditions: in vivo
[4] = molecular target: 5-hydroxytryptamine receptor 2B (Homo sapiens) (UniProt P41595); assay: Displacement of [3H]mesulergine from human 5-HT2B receptor expressed in CHO cells at 10^-6 M after 60 mins by scintillation counting analysis relative to control; type: cell-based
Cavia porcellus [5] = assay: Cardiotoxicity in guinea pig assessed as effect on frequence of heart rate at 5 mg/kg, ip measured after 40 mins by ECG analysis (reference value: 262 to 296 /min); type: toxicity, organism-based; conditions: in vivo
Cavia porcellus [6] = assay: Cardiotoxicity in guinea pig assessed as effect on PR interval time at 5 mg/kg, ip measured after 30 mins by ECG analysis (reference value: 58.8 to 63.8 milliseconds); type: toxicity, organism-based; conditions: in vivo, 0.5 h
[7] = molecular target: Sodium-dependent dopamine transporter (Homo sapiens) (UniProt Q01959); assay: Displacement of [3H]-BTCP from human DAT expressed in CHO cells at 10^-6 M after 120 mins by scintillation counting method relative to control; type: cell-based
Cavia porcellus [8] = assay: Cardiotoxicity in guinea pig assessed as effect on PR interval time at 5 mg/kg, ip measured after 40 mins by ECG analysis (reference value: 58.8 to 63.8 milliseconds); type: toxicity, organism-based; conditions: in vivo
[9] = molecular target: 5-hydroxytryptamine receptor 6 (Homo sapiens, UniProt P50406); assay: Antagonist activity at human 5-HT6R expressed in CHO-K1 cells assessed as inhibition of serotonin-induced cAMP accumulation at 10^-6 M by chemiluminescence-based assay; type: functional, cell-based
[10] = molecular target: 5-hydroxytryptamine receptor 2C (Homo sapiens) (UniProt P28335); assay: Antagonist activity at human 5-HT2CR expressed in HEK293 cells assessed as inhibition of serotonin-induced IP1 accumulation after 30 mins by HTRF method; type: functional, cell-based
[11] = molecular target: T2, 5-hydroxytryptamine receptor 1A (Homo sapiens) (UniProt P08908); assay: Antagonist activity at human 5-HT1AR expressed in CHO-K1 cells assessed as inhibition of serotonin-induced cAMP accumulation at 10^-6 M by chemiluminescence-based assay; type: functional, cell-based
T2 sequence (whole entry): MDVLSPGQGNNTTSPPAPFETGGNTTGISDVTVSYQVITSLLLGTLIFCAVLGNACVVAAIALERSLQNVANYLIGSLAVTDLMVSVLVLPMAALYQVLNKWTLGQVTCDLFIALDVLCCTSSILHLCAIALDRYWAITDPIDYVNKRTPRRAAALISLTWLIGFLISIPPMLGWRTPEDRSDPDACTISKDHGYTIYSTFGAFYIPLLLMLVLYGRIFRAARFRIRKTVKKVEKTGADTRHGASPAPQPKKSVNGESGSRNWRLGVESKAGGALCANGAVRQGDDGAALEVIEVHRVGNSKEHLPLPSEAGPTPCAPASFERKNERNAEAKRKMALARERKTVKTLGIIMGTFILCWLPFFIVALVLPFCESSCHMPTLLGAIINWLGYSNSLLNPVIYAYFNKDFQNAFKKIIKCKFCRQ

[12] = molecular target: D(4) dopamine receptor (Homo sapiens) (UniProt P21917); assay: Displacement of [3H]-methyl-spiperone from human dopamine D4 receptor expressed in CHO cells at 10^-6 M after 60 mins by scintillation counting method relative to control; type: cell-based
[13] = molecular target: Histamine H1 receptor (Homo sapiens) (UniProt P35367); assay: Displacement of [3H]-pyrilamine from human histamine H1 receptor expressed in HEK293 cells at 10^-6 M after 60 mins by scintillation counting method relative to control; type: cell-based
Cavia porcellus [14] = assay: Cardiotoxicity in guinea pig assessed as effect on RR interval time at 5 mg/kg, ip measured after 30 mins by ECG analysis (reference value: 208.4 to 238.4 milliseconds); type: toxicity, organism-based; conditions: in vivo, 0.5 h
[15] = molecular target: T3, 5-hydroxytryptamine receptor 7 (Homo sapiens, UniProt P34969); assay: Displacement of [3H]LSD from recombinant human 5-HT7R after 120 mins by scintillation counting method
[16] = molecular target: 5-hydroxytryptamine receptor 1D (Rattus norvegicus) (UniProt P28565); assay: Displacement of [3H]-serotonin from rat 5-HT1DR expressed in CHO cells at 10^-6 M after 60 mins by scintillation counting analysis relative to control; type: cell-based
[17] = molecular target: T3, 5-hydroxytryptamine receptor 7; assay: Antagonist activity at human 5-HT7R expressed in human DLD1 cells assessed as inhibition of serotonin-induced cAMP accumulation at 10^-6 M by chemiluminescence-based assay; type: functional, cell-based
[18] = molecular target: T3, 5-hydroxytryptamine receptor 7; assay: Antagonist activity at human 5-HT7R expressed in human DLD1 cells assessed as inhibition of serotonin-induced cAMP accumulation by chemiluminescence-based assay; type: functional, cell-based
[19] = Drug level in Wistar rat plasma at 3 mg/kg, ip measured after 30 mins by LC-MS/MS analysis; type: ADME, organism-based
[20] = molecular target: T1, 5-hydroxytryptamine receptor 2A; assay: Displacement of [3H]ketanserin from human recombinant 5-HT2A receptor at 10^-6 M after 60 mins by scintillation counting analysis relative to control
Cavia porcellus [21] = assay: Cardiotoxicity in guinea pig assessed as effect on frequence of heart rate at 5 mg/kg, ip measured after 80 mins by ECG analysis (reference value: 262 to 296 /min); type: toxicity, organism-based; conditions: in vivo
[22] = molecular target: D(3) dopamine receptor (Homo sapiens) (UniProt P35462); assay: Antagonist activity at human D3R expressed in CHO-K1 cells assessed as inhibition of […] cAMP accumulation by chemiluminescence-based assay; type: functional, cell-based
Cavia porcellus [23] = assay: Cardiotoxicity in guinea pig assessed as effect on QT interval time at 5 mg/kg, ip measured after 50 mins by ECG analysis (reference value: 127.6 to 131.2 milliseconds); type: toxicity, organism-based; conditions: in vivo
Cavia porcellus [24] = assay: Cardiotoxicity in guinea pig assessed as effect on QRS interval time at 5 mg/kg, ip measured after 20 mins by ECG analysis (reference value: 26.2 to 31.6 milliseconds); type: toxicity, organism-based; conditions: in vivo
Cavia porcellus [25] = assay: Cardiotoxicity in guinea pig assessed as effect on QRS interval time at 5 mg/kg, ip measured after 80 mins by ECG analysis (reference value: 26.2 to 31.6 milliseconds); type: toxicity, organism-based; conditions: in vivo
[26] = Toxicity in ip dosed Sprague-Dawley rat assessed as induction of catalepsy measured every 30 mins up to 240 mins by bar test; type: organism-based; conditions: Sprague-Dawley, in vivo
[27] = molecular target: T1, 5-hydroxytryptamine receptor 2A; assay: Antagonist activity at human 5-HT2AR expressed in HEK293 cells assessed as inhibition of serotonin-induced calcium flux after 30 mins by HTRF method; type: functional, cell-based
[28] = molecular target: D(3) dopamine receptor (Homo sapiens) (UniProt P35462); assay: Antagonist activity at human D3R expressed in CHO-K1 cells assessed as inhibition of dopamine induced cAMP accumulation at 10^-6 M after 30 mins by HTRF method; type: functional, cell-based

T1 sequence (P28223 whole entry): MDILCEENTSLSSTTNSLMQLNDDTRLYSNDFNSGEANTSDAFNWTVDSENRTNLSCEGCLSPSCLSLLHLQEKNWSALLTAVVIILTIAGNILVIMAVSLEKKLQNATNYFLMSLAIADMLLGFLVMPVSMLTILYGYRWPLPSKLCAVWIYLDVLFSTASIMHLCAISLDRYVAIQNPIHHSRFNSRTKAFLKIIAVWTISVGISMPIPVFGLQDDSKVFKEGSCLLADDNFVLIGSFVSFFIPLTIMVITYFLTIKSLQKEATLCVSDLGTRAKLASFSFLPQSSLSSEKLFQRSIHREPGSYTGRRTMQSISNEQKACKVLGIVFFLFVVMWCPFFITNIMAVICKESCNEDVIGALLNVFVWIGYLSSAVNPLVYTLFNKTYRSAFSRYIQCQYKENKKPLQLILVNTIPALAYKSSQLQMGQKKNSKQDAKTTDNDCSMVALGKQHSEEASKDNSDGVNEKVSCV
T3 sequence (P34969 whole entry): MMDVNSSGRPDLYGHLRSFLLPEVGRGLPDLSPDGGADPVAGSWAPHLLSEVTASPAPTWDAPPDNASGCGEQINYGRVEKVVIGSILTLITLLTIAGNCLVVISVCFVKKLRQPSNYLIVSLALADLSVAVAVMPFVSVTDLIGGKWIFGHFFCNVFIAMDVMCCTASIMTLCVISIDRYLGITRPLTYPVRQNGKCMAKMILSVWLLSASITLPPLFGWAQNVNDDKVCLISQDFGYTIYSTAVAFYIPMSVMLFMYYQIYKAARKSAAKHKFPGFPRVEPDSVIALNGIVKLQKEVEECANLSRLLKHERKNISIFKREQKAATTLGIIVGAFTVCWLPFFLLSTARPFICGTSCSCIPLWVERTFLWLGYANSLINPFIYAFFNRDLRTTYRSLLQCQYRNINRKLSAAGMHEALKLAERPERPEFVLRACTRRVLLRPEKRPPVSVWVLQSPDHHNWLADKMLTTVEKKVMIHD
Chain of D(3) dopamine receptor (Homo sapiens) (P35462 whole entry): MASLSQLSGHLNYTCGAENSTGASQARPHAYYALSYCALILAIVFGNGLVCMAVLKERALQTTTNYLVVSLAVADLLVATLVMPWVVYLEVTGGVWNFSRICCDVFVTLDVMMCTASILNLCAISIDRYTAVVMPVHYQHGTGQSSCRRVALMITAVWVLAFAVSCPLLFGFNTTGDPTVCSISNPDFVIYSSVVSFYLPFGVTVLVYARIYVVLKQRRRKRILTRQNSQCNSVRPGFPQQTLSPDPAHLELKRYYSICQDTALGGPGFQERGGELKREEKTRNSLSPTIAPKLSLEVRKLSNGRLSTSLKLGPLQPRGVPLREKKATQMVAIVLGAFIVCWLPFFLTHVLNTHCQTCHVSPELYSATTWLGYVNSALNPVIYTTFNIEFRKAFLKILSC
Chain of D(4) dopamine receptor (Homo sapiens) (P21917 whole entry): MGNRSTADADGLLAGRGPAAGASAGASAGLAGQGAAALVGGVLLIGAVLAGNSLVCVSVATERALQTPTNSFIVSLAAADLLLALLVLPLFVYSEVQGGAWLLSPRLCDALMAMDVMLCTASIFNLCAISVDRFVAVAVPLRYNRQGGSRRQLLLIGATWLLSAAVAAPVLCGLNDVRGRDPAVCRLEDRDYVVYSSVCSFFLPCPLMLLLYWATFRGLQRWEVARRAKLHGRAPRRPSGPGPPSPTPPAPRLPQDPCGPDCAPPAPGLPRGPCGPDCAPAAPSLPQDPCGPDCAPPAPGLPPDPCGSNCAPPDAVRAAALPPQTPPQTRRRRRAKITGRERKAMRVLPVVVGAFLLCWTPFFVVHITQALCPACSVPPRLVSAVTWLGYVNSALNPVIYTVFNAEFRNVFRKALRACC
Chain of 5-hydroxytryptamine receptor 6 (P50406 whole entry): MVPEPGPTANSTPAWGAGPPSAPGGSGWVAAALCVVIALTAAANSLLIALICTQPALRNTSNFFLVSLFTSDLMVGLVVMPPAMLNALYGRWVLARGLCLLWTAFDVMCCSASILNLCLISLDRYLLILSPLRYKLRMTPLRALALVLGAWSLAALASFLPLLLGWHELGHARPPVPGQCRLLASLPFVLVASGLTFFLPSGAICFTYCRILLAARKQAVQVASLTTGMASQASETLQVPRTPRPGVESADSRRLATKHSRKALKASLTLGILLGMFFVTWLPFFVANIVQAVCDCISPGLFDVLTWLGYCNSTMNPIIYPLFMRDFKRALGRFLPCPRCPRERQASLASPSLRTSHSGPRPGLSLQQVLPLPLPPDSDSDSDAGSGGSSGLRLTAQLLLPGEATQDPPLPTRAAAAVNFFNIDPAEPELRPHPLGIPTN
Chain of D(1A) dopamine receptor (Homo sapiens) (P21728 whole entry): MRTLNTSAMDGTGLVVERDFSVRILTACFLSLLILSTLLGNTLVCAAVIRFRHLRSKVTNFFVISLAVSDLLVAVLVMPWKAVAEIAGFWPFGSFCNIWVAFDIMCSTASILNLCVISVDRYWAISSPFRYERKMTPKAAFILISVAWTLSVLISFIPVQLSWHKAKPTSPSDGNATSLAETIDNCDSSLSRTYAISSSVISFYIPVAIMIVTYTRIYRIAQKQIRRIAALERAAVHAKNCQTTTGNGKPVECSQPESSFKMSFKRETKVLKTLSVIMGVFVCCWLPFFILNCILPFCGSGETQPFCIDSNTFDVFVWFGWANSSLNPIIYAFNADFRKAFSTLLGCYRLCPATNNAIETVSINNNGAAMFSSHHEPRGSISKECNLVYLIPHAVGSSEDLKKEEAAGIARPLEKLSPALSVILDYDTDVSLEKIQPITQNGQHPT
Chain of Sodium-dependent dopamine transporter (Homo sapiens) (Q01959 whole entry): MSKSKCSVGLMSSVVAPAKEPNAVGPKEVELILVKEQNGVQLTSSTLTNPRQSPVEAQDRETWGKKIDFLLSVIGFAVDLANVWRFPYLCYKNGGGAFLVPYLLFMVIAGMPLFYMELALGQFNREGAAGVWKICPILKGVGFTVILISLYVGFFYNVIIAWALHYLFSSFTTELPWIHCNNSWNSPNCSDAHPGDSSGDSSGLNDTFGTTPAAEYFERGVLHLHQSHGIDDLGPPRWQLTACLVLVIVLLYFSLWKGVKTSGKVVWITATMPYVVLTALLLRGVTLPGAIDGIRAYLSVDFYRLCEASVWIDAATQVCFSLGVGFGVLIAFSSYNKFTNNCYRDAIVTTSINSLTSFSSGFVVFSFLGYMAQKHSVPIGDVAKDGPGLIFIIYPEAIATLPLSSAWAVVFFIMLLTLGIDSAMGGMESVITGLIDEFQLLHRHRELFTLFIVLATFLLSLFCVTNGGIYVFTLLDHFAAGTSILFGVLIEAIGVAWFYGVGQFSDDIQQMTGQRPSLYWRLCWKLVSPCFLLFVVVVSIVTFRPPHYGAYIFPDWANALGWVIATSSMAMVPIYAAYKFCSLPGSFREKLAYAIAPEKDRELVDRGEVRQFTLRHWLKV
Chain of 5-hydroxytryptamine receptor 2C (Homo sapiens) (P28335 whole entry): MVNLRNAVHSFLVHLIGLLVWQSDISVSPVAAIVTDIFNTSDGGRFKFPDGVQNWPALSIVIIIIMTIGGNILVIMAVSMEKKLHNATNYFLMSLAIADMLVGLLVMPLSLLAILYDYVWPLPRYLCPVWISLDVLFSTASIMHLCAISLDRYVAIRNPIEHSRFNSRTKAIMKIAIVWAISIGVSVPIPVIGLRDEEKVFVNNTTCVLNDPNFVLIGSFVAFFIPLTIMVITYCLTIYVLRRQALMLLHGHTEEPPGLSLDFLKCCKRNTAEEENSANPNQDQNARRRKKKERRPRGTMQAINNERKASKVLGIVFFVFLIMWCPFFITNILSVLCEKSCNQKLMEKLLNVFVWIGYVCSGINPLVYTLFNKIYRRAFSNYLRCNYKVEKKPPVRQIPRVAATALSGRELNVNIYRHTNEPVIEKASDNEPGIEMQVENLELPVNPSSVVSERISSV
Chain of 5-hydroxytryptamine receptor 2B (Homo sapiens) (P41595 whole entry): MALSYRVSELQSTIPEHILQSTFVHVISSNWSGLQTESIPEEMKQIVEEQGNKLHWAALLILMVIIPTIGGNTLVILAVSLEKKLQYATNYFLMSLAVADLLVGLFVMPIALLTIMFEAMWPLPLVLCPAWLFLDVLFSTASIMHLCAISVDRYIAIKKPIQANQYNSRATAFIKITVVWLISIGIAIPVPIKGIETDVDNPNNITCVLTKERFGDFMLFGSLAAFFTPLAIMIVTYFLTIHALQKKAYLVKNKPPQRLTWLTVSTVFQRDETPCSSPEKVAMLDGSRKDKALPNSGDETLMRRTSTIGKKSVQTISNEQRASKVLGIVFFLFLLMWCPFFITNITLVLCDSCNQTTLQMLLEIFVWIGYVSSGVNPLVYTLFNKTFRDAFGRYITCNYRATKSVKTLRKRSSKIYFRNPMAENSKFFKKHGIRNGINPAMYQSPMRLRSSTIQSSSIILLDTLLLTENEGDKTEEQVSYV
Chain of Histamine H1 receptor (Homo sapiens) (P35367 whole entry): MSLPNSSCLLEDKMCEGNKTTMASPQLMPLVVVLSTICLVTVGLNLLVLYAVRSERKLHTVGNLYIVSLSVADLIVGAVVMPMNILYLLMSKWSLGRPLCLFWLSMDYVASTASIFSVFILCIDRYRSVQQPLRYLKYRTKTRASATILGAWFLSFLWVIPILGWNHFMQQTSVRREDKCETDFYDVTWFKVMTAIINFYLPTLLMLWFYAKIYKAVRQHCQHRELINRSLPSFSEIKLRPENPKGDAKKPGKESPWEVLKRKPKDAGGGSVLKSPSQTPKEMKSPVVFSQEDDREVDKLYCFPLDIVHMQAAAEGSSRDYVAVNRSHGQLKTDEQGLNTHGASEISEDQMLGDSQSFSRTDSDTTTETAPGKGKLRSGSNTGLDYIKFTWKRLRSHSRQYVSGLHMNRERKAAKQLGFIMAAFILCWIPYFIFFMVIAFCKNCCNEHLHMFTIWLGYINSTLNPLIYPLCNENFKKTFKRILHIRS

| Compound | Time (Cavia porcellus [3]) | Activity (Cavia porcellus [5]) | Time (Cavia porcellus [6]) | Time (Cavia porcellus [8]) | Time (Cavia porcellus [14]) | concentration at 0.5 h [19] | Activity (Cavia porcellus [21]) | Time (Cavia porcellus [23]) | Time (Cavia porcellus [24]) | Time (Cavia porcellus [25]) | also measured |
| --- | --- | --- | --- | --- | --- | --- | --- | --- | --- | --- | --- |
| O=S(=O)(c1cncc2ccccc12)N1CCC[C@H]1CCN1CCN(c2cccc3sccc23)CC1 | 62.8 ms | 263 min⁻¹ | 62.8 ms | 63.4 ms | 235.2 ms | 105 nM | 286 min⁻¹ | 124.8 ms | 31.6 ms | 32 ms | Kb [1]: 2.3 nM; inhibition [2]: 10%; inhibition [4]: 100%; inhibition [7]: 19%; inhibition [9]: 23%; Kb [10]: 24 nM; inhibition [11]: 32.5%; inhibition [12]: 10%; inhibition [13]: 96%; pKi [15]: 7.72; inhibition [16]: 95%; inhibition [17]: 94%; Kb [18]: 3.4 nM; inhibition [20]: 100%; Kb [22]: 92 nM |
| O=S(=O)(c1cncc2ccccc12)N1CCC[C@H]1CCN1CCN(c2nsc3ccccc23)CC1 | 59 ms | 288 min⁻¹ | 58.8 ms | 61 ms | 212.6 ms | 177 nM | 284 min⁻¹ | 121.6 ms | 26 ms | 26 ms | MTD [26]: 30 mg/kg; Kb [27]: 2 nM; inhibition [28]: 100% |

From ChEMBL document CHEMBL4229332, “Novel multi-target azinesulfonamides of cyclic amine derivatives as potential antipsychotics with pro-social and pro-cognitive effects” (Eur J Med Chem, 2018)
